{"source": "patent US4988699A", "about": "“Substituted tetrahydrobenzothiazoles as dopaminergic agents” (Warner-Lambert Company, priority 1989, dated 1991)", "key": {"[1]": {"test_system": "locomotor activity in mice", "experiment": "Inhibition of locomotor activity in mice", "format": "in vivo", "details": "for ED50: Mus musculus, ip, read-out: Inhibition of Locomotor Activity in Mice ED50", "procedure": "(§1) The compounds of Formula I are valuable dopaminergic agents. […] Thus, the compounds of Formula I were tested for their ability to inhibit locomotor activity in mice according to the assay described by J. R. McLean, et al, Pharmacology, Biochemistry and Behavior, Volume 8, pages 97-99 (1978); for their ability to inhibit haloperidol binding in a receptor assay described by D. R. Burt, et al, Molecular Pharmacology, Volume 12, pages 800-812 (1976); and for their ability to inhibit dopamine synthesis in rats according to the protocol described by J. R. Walters and R. H. Roth, Naunyn--Schmiedeberg's Archives of Pharmacology, Volume 296, pages 5-14 (1976). The above test methods are incorporated herein by reference."}, "[2]": {"test_system": "dopamine synthesis in rats", "experiment": "Inhibition of dopamine synthesis in rats", "format": "in vivo", "details": "IP", "procedure": "as §1"}, "[3]": {"target": "T1, haloperidol binding in a receptor assay (Bos taurus, UniProt P20288)", "T1 construct": "from tissue; host or cells: calf brain (caudate/striatal) membranes, inferred from the cited method", "T1 sequence (P20288 whole entry)": "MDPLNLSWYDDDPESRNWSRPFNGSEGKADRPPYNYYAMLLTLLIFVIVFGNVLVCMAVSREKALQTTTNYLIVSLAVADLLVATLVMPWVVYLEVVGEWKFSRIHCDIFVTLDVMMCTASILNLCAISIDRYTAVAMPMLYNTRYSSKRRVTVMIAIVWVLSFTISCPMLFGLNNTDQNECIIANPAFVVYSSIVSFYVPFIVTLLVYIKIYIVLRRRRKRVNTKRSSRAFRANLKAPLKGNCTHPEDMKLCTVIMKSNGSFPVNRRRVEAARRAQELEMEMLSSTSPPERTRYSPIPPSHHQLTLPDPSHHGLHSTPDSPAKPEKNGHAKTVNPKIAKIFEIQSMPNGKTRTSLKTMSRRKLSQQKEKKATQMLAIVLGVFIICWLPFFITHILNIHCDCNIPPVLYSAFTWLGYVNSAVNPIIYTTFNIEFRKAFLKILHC", "experiment": "Inhibition of haloperidol binding", "procedure": "as §1"}}, "note": "Where two headings read alike, the source gives them in different places."}
{"smiles": "Nc1nc2c(s1)CC(CN1CC=C(c3ccccc3)CC1)CC2", "note": "(racemic) [Example 8, (±)-6-[(3,6-Dihydro-4-phenyl-1(2H)-pyridinyl)methyl]-4,5,6,7-tetrahydro-2-benzothiazolamine]", "values": [{"measurement": "ED50", "setting": "[1]", "result": 0.75, "unit": "mg/kg"}]}
{"smiles": "Nc1nc2c(s1)CC(N1CC=C(c3ccccc3)CC1)CC2", "note": "(racemic) [Example 1a, (±)-6-(3,6-Dihydro-4-phenyl-1(2H)-pyridinyl)-4,5,6,7-tetrahydro-2-benzothiazolamine]", "values": [{"measurement": "ED50", "setting": "[1]", "result": 1.5, "unit": "mg/kg"}, {"measurement": "Inhibition of Dopamine Synthesis in Rats", "setting": "[2]; at 10 mg/kg", "result": 69, "unit": "%"}]}
{"smiles": "Nc1nc2c(s1)CC(CCN1CCN(c3ccccn3)CC1)CC2", "note": "(racemic) [Example 9, (±)-4,5,6,7-Tetrahydro-6-[2-[4-(2-pyridinyl)-1-piperazinyl]ethyl]-2-benzothiazolamine]", "values": [{"measurement": "IC50", "setting": "[3]", "result": 0.105, "unit": "µM"}, {"measurement": "ED50", "setting": "[1]; mice, IP", "result": 0.21, "unit": "mg/kg"}, {"measurement": "Inhibition of Dopamine Synthesis in Rats", "setting": "[2]; at 1.3 mg/kg", "result": 50, "unit": "%"}]}
{"smiles": "Nc1nc2c(s1)CC(N1CCN(c3ccccc3)CC1)CC2", "note": "(racemic) [Example 1b, (±)-4,5,6,7-Tetrahydro-6-(4-phenyl-1-piperazinyl)-2-benzothiazolamine]", "values": [{"measurement": "ED50", "setting": "[1]; mice, IP", "result": 6.1, "unit": "mg/kg"}]}
{"smiles": "O=C(Nc1nc2c(s1)CC(N1CCN(c3ccccn3)CC1)CC2)c1ccccc1", "note": "(racemic) [Example 2, (±)-N-[4,5,6,7-Tetrahydro-6-[4-(2-pyridinyl)-1-piperazinyl]-2-benzothiazolyl]benzamide]", "values": [{"measurement": "ED50", "setting": "[1]; mice, IP", "result": 3.7, "unit": "mg/kg"}, {"measurement": "Inhibition of Dopamine Synthesis in Rats", "setting": "[2]; at 10 mg/kg", "result": 59, "unit": "%"}]}
{"smiles": "Nc1nc2c(s1)CC(CCN1CCN(c3ccccn3)CC1)CC2", "note": "(single isomer, unassigned; (-)) [Example 11a, (-)-4,5,6,7-Tetrahydro-6-[2-[4-(2-pyridinyl)-1-piperazinyl]ethyl]-2-benzothiazolamine]", "values": [{"measurement": "ED50", "setting": "[1]; mice, IP", "result": 0.2, "unit": "mg/kg"}, {"measurement": "Inhibition of Dopamine Synthesis in Rats", "setting": "[2]; at 0.2 mg/kg", "result": 50, "unit": "%"}]}
{"smiles": "Nc1nc2c(s1)CC(N1CCN(c3ccccn3)CC1)CC2", "note": "(single isomer, unassigned; (+)) [Example 3, (+)-4,5,6,7-Tetrahydro-6-[4-(2-pyridinyl)-1-piperazinyl]-2-benzothiazolamine]", "values": [{"measurement": "IC50", "setting": "[3]", "result": "~0.8", "unit": "µM"}, {"measurement": "ED50", "setting": "[1]; mice, IP", "result": 9.9, "unit": "mg/kg"}, {"measurement": "Inhibition of Dopamine Synthesis in Rats", "setting": "[2]; at 7.0 mg/kg", "result": 50, "unit": "%"}]}
{"smiles": "Nc1nc2c(s1)CC(CCN1CC=C(c3ccccc3)CC1)CC2", "note": "(racemic) [Example 10, (±)-6-[2-(3,6-Dihydro-4-phenyl-1(2H)-pyridinyl)ethyl]-4,5,6,7-tetrahydro-2-benzothiazolamine]", "values": [{"measurement": "ED50", "setting": "[1]", "result": 0.4, "unit": "mg/kg"}]}
{"smiles": "Nc1nc2c(s1)CC(CN1CCN(c3ccccn3)CC1)CC2", "note": "(racemic) [Example 7, (±)-4,5,6,7-Tetrahydro-6-[[4-(2-pyridinyl)-1-piperazinyl]methyl]-2-benzothiazolamine]", "values": [{"measurement": "ED50", "setting": "[1]; mice, IP", "result": 7.2, "unit": "mg/kg"}, {"measurement": "Inhibition of Dopamine Synthesis in Rats", "setting": "[2]; at 10 mg/kg", "result": 48, "unit": "%"}]}
{"smiles": "Nc1nc2c(s1)CC(CCN1CCN(c3ccccn3)CC1)CC2", "note": "(single isomer, unassigned; (+)) [Example 11, (+)-4,5,6,7-Tetrahydro-6-[2-[4-(2-pyridinyl)-1-piperazinyl]ethyl]-2-benzothiazolamine]", "values": [{"measurement": "Inhibition of Locomotor Activity in Mice ED50", "setting": "[1]; mice, IP", "result": 0.37, "unit": "mg/kg"}, {"measurement": "Inhibition of Dopamine Synthesis in Rats", "setting": "[2]; at 0.8 mg/kg", "result": 50, "unit": "%"}]}
{"smiles": "Nc1nc2c(s1)CC(N1CCN(c3ccccn3)CC1)CC2", "note": "(racemic) [Example 1, (±)-4,5,6,7-Tetrahydro-6-[4-(2-pyridinyl)-1-piperazinyl]-2-benzothiazolamine]", "values": [{"measurement": "IC50", "setting": "[3]", "result": 0.876, "unit": "µM"}, {"measurement": "ED50", "setting": "[1]; mice, IP", "result": 6.6, "unit": "mg/kg"}, {"measurement": "Inhibition of Dopamine Synthesis in Rats", "setting": "[2]; at 4.4 mg/kg", "result": 50, "unit": "%"}]}
{"smiles": "Nc1nc2c(s1)CC(N1CCN(c3ccccn3)CC1)CC2", "note": "(single isomer, unassigned; (-)) [Example 4, (-)-4,5,6,7-Tetrahydro-6-[4-(2-pyridinyl)-1-piperazinyl]-2-benzothiazolamine]", "values": [{"measurement": "IC50", "setting": "[3]", "result": "~1.5", "unit": "µM"}, {"measurement": "Inhibition of Locomotor Activity in Mice ED50", "setting": "[1]; mice, IP", "result": 7.4, "unit": "mg/kg"}, {"measurement": "Inhibition of Dopamine Synthesis in Rats", "setting": "[2]; at 4.8 mg/kg", "result": 50, "unit": "%"}]}
{"smiles": "Nc1nc2c(s1)CC(N1CCN(c3ncccn3)CC1)CC2", "note": "(racemic) [Example 1c, (±)-4,5,6,7-Tetrahydro-6-[4-(2-pyrimidinyl)-1-piperazinyl]-2-benzothiazolamine]", "values": [{"measurement": "ED50", "setting": "[1]; mice, IP", "result": 30, "unit": "mg/kg"}]}
{"smiles": "c1ccc(N2CCN(CC3CCc4ncsc4C3)CC2)nc1", "note": "(racemic) [Example 5, (±)-4,5,6,7-tetrahydro-6-[[4-(2-pyridinyl)-1-piperazinyl]methyl]benzothiazole]", "values": [{"measurement": "ED50", "setting": "[1]; mice, IP", "result": 7.4, "unit": "mg/kg"}]}
